Experimental data reported in patent US5719154A, “Oxazolidinone antibacterial agents having a six-membrane heteroaromatic ring” (priority 1996, dated 1998).

Key:
S. aureus UC ® No. 9213 = test: Murine Assay, in vivo antimicrobial activity (ED50 from mortality ratios) against S. aureus UC No. 9213; parameters: species or system Staphylococcus aureus (infected female mice); conditions: oral or subcutaneous, survival six days; for ED50: Staphylococcus aureus, UC9213, 144 h, female mice infected intraperitoneally with S. aureus UC No. 9213, drug one hour and five hours after infection, probit analysis
Procedure: Antimicrobial activity is tested in vivo using the Murine Assay procedure. Groups of female mice (six mice weighing 18-20 grams each) are injected intraperiteneally with bacteria which are thawed just prior to use and suspended in brain heart infusion with 4% brewers yeast (Staphylococcus aureus) or brain heart infusion (Streptecoccus species). Antibiotic treatment at six dose levels per drug is administered one hour and five hours after infection by either oral intubation or subcutaneous routes. Survival is observed daily for six days. ED50 values based on mortality ratios are calculated using probit analysis. The subject compounds are compared against drug U-100592 as controls. […] The detailed information with respect to the structure and in vivo efficacy evaluations of U-100592 is summarized in Upjohn Oxazolidinone Antibacterial Agents, Posters Presented at the 35th Interscience Conference on Antimicrobial Agents and Chemotherapy, San Francisco, 17-20 September 1995.

[1] = test system: bacteria (Staphylococcus aureus or Streptecoccus species); conditions: extensively evaluated in this animal model versus vancomycin; cited from earlier work

Row | Structure (SMILES) | ED50 (S. aureus UC ® No. 9213) [mg/kg] | U-100592 ED50 (S. aureus UC ® No. 9213; comparator control for the Example of the same line, female mice, S. aureus UC No. 9213, 8640 min) [mg/kg] | potency versus vancomycin [1]
1 | CC(=O)NC[C@H]1CN(c2ccc(N3CCN(c4ncccn4)CC3)c(F)c2)C(=O)O1 [Example 1] | 6.2 |  | 
2 | CC(=O)NC[C@H]1CN(c2ccc(N3CCN(c4ccncn4)CC3)c(F)c2)C(=O)O1 [Example 2] | 4.4 |  | 
3 | CC(=O)NC[C@H]1CN(c2ccc(N3CCN(c4cccnn4)CC3)c(F)c2)C(=O)O1 [Example 3] | 8.8 |  | 
4 | CC(=O)NC[C@H]1CN(c2ccc(N3CCN(c4ccc(C)nn4)CC3)c(F)c2)C(=O)O1 [Example 4] | 6.3 |  | 
5 | CC(=O)NC[C@H]1CN(c2ccc(N3CCN(C(=O)CO)CC3)c(F)c2)C(=O)O1 [Example U-100592, reference compound] |  | 8.7 | equipotent to vancomycin
